Assay: xn = mol fraction of the nth substance listed
Conditions: 101.3 kPa, Liquid; for viscosity: Concentric cylinders viscometry; for mass density: Vibrating tube method

O=S1(=O)CCCC1 [sulfolane] + CCCC[n+]1ccn(C)c1.O=S(=O)([N-]S(=O)(=O)C(F)(F)F)C(F)(F)F
Conditions | mass density [kg/m3] | viscosity [mPa·s]
293.15 K, x2 = 0.1 | 1315.1 | 16.7
293.15 K, x2 = 0.1999 | 1345.9 | 19.8
293.15 K, x2 = 0.3001 | 1368.7 | 23.8
293.15 K, x2 = 0.4 | 1386.1 | 28.2
293.15 K, x2 = 0.5001 | 1400.1 | 32.9
293.15 K, x2 = 0.5999 | 1411.3 | 38
293.15 K, x2 = 0.7 | 1420.8 | 43.2
293.15 K, x2 = 0.7995 | 1428.6 | 49.6
293.15 K, x2 = 0.8985 | 1435.3 | 55.1
298.15 K, x2 = 0 | 1266.4 | 11.9
298.15 K, x2 = 0.1 | 1310.6 | 14.8
298.15 K, x2 = 0.1999 | 1341.3 | 17
298.15 K, x2 = 0.3001 | 1364.6 | 19.9
298.15 K, x2 = 0.4 | 1381.3 | 23.2
298.15 K, x2 = 0.5001 | 1395.3 | 26.7
298.15 K, x2 = 0.5999 | 1406.5 | 30.8
298.15 K, x2 = 0.7 | 1416 | 34.7
298.15 K, x2 = 0.7995 | 1423.8 | 39.8
298.15 K, x2 = 0.8985 | 1430.5 | 44.4
303.15 K, x2 = 0 | 1259.4 | 10.5
303.15 K, x2 = 0.1 | 1306.1 | 12.8
303.15 K, x2 = 0.1999 | 1336.7 | 14.3
303.15 K, x2 = 0.3001 | 1359.1 | 16.5
303.15 K, x2 = 0.4 | 1376.6 | 18.8
303.15 K, x2 = 0.5001 | 1390.5 | 21.5
303.15 K, x2 = 0.5999 | 1401.7 | 24.7
303.15 K, x2 = 0.7 | 1411.1 | 27.3
303.15 K, x2 = 0.7995 | 1419 | 31.1
303.15 K, x2 = 0.8985 | 1425.7 | 35.1
313.15 K, x2 = 0 | 1251.7 | 8.1
313.15 K, x2 = 0.1 | 1297 | 9.7
313.15 K, x2 = 0.1999 | 1327.5 | 10.7
313.15 K, x2 = 0.3001 | 1349.4 | 12.3
313.15 K, x2 = 0.4 | 1367.2 | 13.4
313.15 K, x2 = 0.5001 | 1381.1 | 15.4
313.15 K, x2 = 0.5999 | 1392.2 | 17.6
313.15 K, x2 = 0.7 | 1401.6 | 18.7
313.15 K, x2 = 0.7995 | 1409.4 | 21.2
313.15 K, x2 = 0.8985 | 1416.1 | 24.4
323.15 K, x2 = 0 | 1244 | 6.4
323.15 K, x2 = 0.1 | 1288 | 7.7
323.15 K, x2 = 0.1999 | 1318.3 | 8.4
323.15 K, x2 = 0.3001 | 1340.2 | 9.7
323.15 K, x2 = 0.4 | 1357.8 | 10.2
323.15 K, x2 = 0.5001 | 1371.6 | 11.9
323.15 K, x2 = 0.5999 | 1382.8 | 13.6
323.15 K, x2 = 0.7 | 1392.1 | 14.1
323.15 K, x2 = 0.7995 | 1399.9 | 16
323.15 K, x2 = 0.8985 | 1406.6 | 18.4
333.15 K, x2 = 0 | 1235.4 | 5.2
333.15 K, x2 = 0.1 | 1279 | 5.7
333.15 K, x2 = 0.1999 | 1309 | 6.3
333.15 K, x2 = 0.3001 | 1331 | 7.3
333.15 K, x2 = 0.4 | 1348.4 | 7.5
333.15 K, x2 = 0.5001 | 1362.2 | 9.2
333.15 K, x2 = 0.5999 | 1373.3 | 10.5
333.15 K, x2 = 0.7 | 1382.6 | 10.8
333.15 K, x2 = 0.7995 | 1390.4 | 12.2
333.15 K, x2 = 0.8985 | 1397.1 | 14.1
343.15 K, x2 = 0 | 1225 | 4.3
343.15 K, x2 = 0.1 | 1269.9 | 4.6
343.15 K, x2 = 0.1999 | 1299.8 | 5.1
343.15 K, x2 = 0.3001 | 1321.8 | 5.9
343.15 K, x2 = 0.4 | 1339.1 | 6.2
343.15 K, x2 = 0.5001 | 1352.8 | 7.3
343.15 K, x2 = 0.5999 | 1363.9 | 8.2
343.15 K, x2 = 0.7 | 1373.2 | 8.6
343.15 K, x2 = 0.7995 | 1381 | 9.5
343.15 K, x2 = 0.8985 | 1387.6 | 10.7

Reference: the NIST ThermoML archive (doi:10.1016/j.tca.2016.07.005)
